Measurements reported in patent US20250179061A1 (SIRONAX LTD., priority 2022, published 2025).

Tested on: HT-29 cells
Assay: HT-29 necroptosis cell viability assay (TNF-α/SMAC mimetic/zVAD-FMK, CellTiter-Glo)
Assay type: cell-based
Conditions: Homo sapiens, HT-29, HT-29 cells, necroptosis induced by TNF-α/SMAC mimetic/zVAD-FMK, CellTiter-Glo; read-out: Activity (IC50 class)
Procedure, shortened: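 HT-29 cells (~5,000/well, overnight) in FBS-free McCoy's 5A with TNF-α 10 ng/ml, SMAC mimetic 6 μM and zVAD-FMK 10 μM plus 10-point 1:3 compound titration, 20 h at 37°C. ATP measured by CellTiter-Glo luminescence; IC50 as geometric mean of duplicates.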

**Q.** For `Cc1nc(C(N)=O)sc1Oc1ccc(-n2nc3n(c2=O)[C@@H](c2ccc(F)cc2)CC3)cc1F` (single isomer, unassigned) [Example 669], which IC50 is on record?
**A.** Its IC50 is 1000 to 10000 nM.

Same assay, conditions: Homo sapiens, HT-29, HT-29 necroptosis cell viability assay; class symbols for IC50; read-out: Activity

**Q.** For `Cc1nc(C2CC(C(N)=O)C2)sc1Oc1ccc(-n2ncn(Cc3c(F)cccc3F)c2=O)cc1F` (centres unmarked) [Example 113, 3-(5-(4-(4-(2,6-difluorobenzyl)-5-oxo-4,5-dihydro-1H-1,2,4-triazol-1-yl)-2-fluorophenoxy)-4-methylthiazol-2-yl)cyclobutane-1-carboxamide], which IC50 is on record?
**A.** The IC50 was less than 100 nM.

**Q.** With `Cc1nc(C(=O)N2CC(NC(=O)OC(C)(C)C)C2)sc1Oc1ccc(-n2ncn(Cc3ccccc3F)c2=O)cc1F` [Example 598, tert-butyl (1-(5-(2-fluoro-4-(4-(2-fluorobenzyl)-5-oxo-4,5-dihydro-1H-1,2,4-triazol-1-yl)phenoxy)-4-methylthiazole-2-carbonyl)azetidin-3-yl)carbamate] as the compound, how does the IC50 read?
**A.** Its IC50 is less than 100 nM.

**Q.** Which IC50 does the source give for `Cn1cc(C(C)(C)O)nc1Oc1ccc(-n2ncn(Cc3c(F)cccc3F)c2=O)cc1F` [Example 131, 4-(2,6-difluorobenzyl)-2-(3-fluoro-4-((4-(2-hydroxypropan-2-yl)-1-methyl-1H-imidazol-2-yl)oxy)phenyl)-2,4-dihydro-3H-1,2,4-triazol-3-one] here?
**A.** Its IC50 is greater than 10000 nM.

**Q.** With `Cc1nc(C(=O)NCC2COC2)sc1Oc1ccc(-n2ncn(Cc3ncccc3F)c2=O)cc1F` [Example 607, 5-(2-fluoro-4-(4-((3-fluoropyridin-2-yl)methyl)-5-oxo-4,5-dihydro-1H-1,2,4-triazol-1-yl)phenoxy)-4-methyl-N-(oxetan-3-ylmethyl)thiazole-2-carboxamide] as the compound, how does the IC50 read?
**A.** Its IC50 is less than 100 nM.

**Q.** For `COC(=O)c1cc(C)n(Cc2ccc(-n3ncn(Cc4c(F)cccc4F)c3=O)cc2F)c1C` [Example 205, methyl 1-(4-(4-(2,6-difluorobenzyl)-5-oxo-4,5-dihydro-1H-1,2,4-triazol-1-yl)-2-fluorobenzyl)-2,5-dimethyl-1H-pyrrole-3-carboxylate], which IC50 is on record?
**A.** The IC50 was less than 100 nM.

**Q.** For `Cc1nc(C2(O)CC2)sc1Oc1ccc(-n2ncn(Cc3c(F)cccc3F)c2=O)cc1` [Example 580, 4-(2,6-difluorobenzyl)-2-(4-((2-(1-hydroxycyclopropyl)-4-methylthiazol-5-yl)oxy)phenyl)-2,4-dihydro-3H-1,2,4-triazol-3-one], which IC50 is on record?
**A.** Its IC50 is less than 100 nM.

**Q.** With `Cc1cc(Oc2ccc(-n3ncn(Cc4c(F)cccc4F)c3=O)cc2F)n(C)n1` [Example 172, 4-(2,6-difluorobenzyl)-2-(4-((1,3-dimethyl-1H-pyrazol-5-yl)oxy)-3-fluorophenyl)-2,4-dihydro-3H-1,2,4-triazol-3-one] as the compound, how does the IC50 read?
**A.** The IC50 was less than 100 nM.

**Q.** Which IC50 does the source give for `Cc1nc(C(=O)NCC2COC2)sc1Oc1ccc(-n2ncn(Cc3ccccc3F)c2=O)cc1F` [Example 604, 5-(2-fluoro-4-(4-(2-fluorobenzyl)-5-oxo-4,5-dihydro-1H-1,2,4-triazol-1-yl)phenoxy)-4-methyl-N-(oxetan-3-ylmethyl)thiazole-2-carboxamide] here?
**A.** Its IC50 is less than 100 nM.

**Q.** `Cc1nn(Cc2ccc(-n3ncn(Cc4c(F)cccc4F)c3=O)cc2)cc1Br` [Example 184, 2-(4-((4-bromo-3-methyl-1H-pyrazol-1-yl)methyl)phenyl)-4-(2,6-difluorobenzyl)-2,4-dihydro-3H-1,2,4-triazol-3-one] was tested. Which IC50 did it give?
**A.** Its IC50 is less than 100 nM.

**Q.** `O=c1n(Cc2c(F)cccc2F)cnn1-c1ccc(Oc2cc(C3CCOCC3)ncc2F)c(F)c1` [Example 553, 4-(2,6-difluorobenzyl)-2-(3-fluoro-4-((5-fluoro-2-(tetrahydro-2H-pyran-4-yl)pyridin-4-yl)oxy)phenyl)-2,4-dihydro-3H-1,2,4-triazol-3-one] was tested. Which IC50 did it give?
**A.** Its IC50 is 100 to 1000 nM.

Same assay, conditions: Homo sapiens, HT-29, HT-29 necroptosis cell viability, IC50 class symbols; read-out: Activity

**Q.** Which IC50 does the source give for `CCOC1CN(c2cc(Oc3ccc(-n4ncn(Cc5c(F)cccc5F)c4=O)cc3)ccn2)C1` [Example 336, 4-(2,6-difluorobenzyl)-2-(4-((2-(3-ethoxyazetidin-1-yl)pyridin-4-yl)oxy)phenyl)-2,4-dihydro-3H-1,2,4-triazol-3-one] here?
**A.** The IC50 was less than 100 nM.

**Q.** For `O=c1n(Cc2c(F)cccc2F)cnn1-c1ccc(Oc2ccnc(N3CC4(CCN4)C3)c2)cc1` [Example 315, 2-(4-((2-(1,6-diazaspiro[3.3]heptan-6-yl)pyridin-4-yl)oxy)phenyl)-4-(2,6-difluorobenzyl)-2,4-dihydro-3H-1,2,4-triazol-3-one], which IC50 is on record?
**A.** The IC50 was less than 100 nM.

**Q.** With `CCOC1CN(c2nccc(Oc3ccc(-n4ncn(Cc5c(F)cccc5F)c4=O)cc3)c2F)C1` [Example 355, 4-(2,6-difluorobenzyl)-2-(4-((2-(3-ethoxyazetidin-1-yl)-3-fluoropyridin-4-yl)oxy)phenyl)-2,4-dihydro-3H-1,2,4-triazol-3-one] as the compound, how does the IC50 read?
**A.** The IC50 was less than 100 nM.

**Q.** For `CN(CC1CCOCC1)c1cc(Oc2ccc(-n3ncn(Cc4c(F)cccc4F)c3=O)cc2)ccn1` [Example 407, 4-[(2,6-difluorophenyl)methyl]-2-[4-({2-[methyl(oxan-4-ylmethyl)amino]pyridin-4-yl}oxy)phenyl]-1,2,4-triazol-3-one], which IC50 is on record?
**A.** The IC50 was 100 to 1000 nM.

**Q.** `Cc1nc(N2CC3(CCO3)C2)sc1Oc1ccc(-n2ncn(Cc3c(F)cccc3F)c2=O)cc1` [Example 457, 4-(2,6-difluorobenzyl)-2-(4-((4-methyl-2-(1-oxa-6-azaspiro[3.3]heptan-6-yl)thiazol-5-yl)oxy)phenyl)-2,4-dihydro-3H-1,2,4-triazol-3-one] was tested. Which IC50 did it give?
**A.** The IC50 was less than 100 nM.

**Q.** For `Cc1cnc(N2CCC(C)(C#N)C2)cc1Oc1ccc(-n2ncn(Cc3c(F)cccc3F)c2=O)cc1F` (centres unmarked) [Example 228, 1-(4-(4-(4-(2,6-difluorobenzyl)-5-oxo-4,5-dihydro-1H-1,2,4-triazol-1-yl)-2-fluorophenoxy)-5-methylpyridin-2-yl)-3-methylpyrrolidine-3-carbonitrile], which IC50 is on record?
**A.** Its IC50 is less than 100 nM.

**Q.** For `Cc1cc(-n2ncn(Cc3c(F)cccc3F)c2=O)ccc1Oc1ccnc(N2CC3(CCOCC3)C2)c1` [Example 274, 2-(4-((2-(7-oxa-2-azaspiro[3.5]nonan-2-yl)pyridin-4-yl)oxy)-3-methylphenyl)-4-(2,6-difluorobenzyl)-2,4-dihydro-3H-1,2,4-triazol-3-one], which IC50 is on record?
**A.** Its IC50 is 1000 to 10000 nM.

**Q.** `CCOC1CN(c2cc(Oc3ccc(-n4ncn(Cc5c(F)cccc5F)c4=O)cc3)c(Cl)cn2)C1` [Example 326, 2-(4-((5-chloro-2-(3-ethoxyazetidin-1-yl)pyridin-4-yl)oxy)phenyl)-4-(2,6-difluorobenzyl)-2,4-dihydro-3H-1,2,4-triazol-3-one] was tested. Which IC50 did it give?
**A.** Its IC50 is less than 100 nM.

Same assay, conditions: Homo sapiens; HT-29 cells stimulated with TNF-α (10 ng/ml), SMAC mimetic (6 μM) and zVAD-FMK (10 μM); 20 hours; CellTiter-Glo ATP luminescence; geometric mean IC50 from 10 points; read-out: Activity

**Q.** Which IC50 does the source give for `Cc1nc(C2(F)CC(OCc3ccccc3)C2)sc1Oc1ccc(-n2ncn(Cc3c(F)cccc3F)c2=O)cc1F` (centres unmarked) [Example 111, 2-(4-((2-(3-(benzyloxy)-1-fluorocyclobutyl)-4-methylthiazol-5-yl)oxy)-3-fluorophenyl)-4-(2,6-difluorobenzyl)-2,4-dihydro-3H-1,2,4-triazol-3-one] here?
**A.** The IC50 was less than 100 nM.

**Q.** How did the IC50 turn out when `O=c1n(Cc2ccccc2)cnn1-c1ccc(Cc2ccccc2)cc1` [Example 66, 4-benzyl-2-(4-benzylphenyl)-2,4-dihydro-3H-1,2,4-triazol-3-one] was run?
**A.** Its IC50 is less than 100 nM.

**Q.** For `Cc1nc(C2(F)CC(N)C2)sc1Oc1ccc(-n2ncn(Cc3c(F)cccc3F)c2=O)cc1F` (centres unmarked) [Example 109, 2-(4-((2-(3-amino-1-fluorocyclobutyl)-4-methylthiazol-5-yl)oxy)-3-fluorophenyl)-4-(2,6-difluorobenzyl)-2,4-dihydro-3H-1,2,4-triazol-3-one], which IC50 is on record?
**A.** Its IC50 is less than 100 nM.

**Q.** For `Cc1ncsc1Cc1ccc(-n2ncn(Cc3c(F)cccc3F)c2=O)cc1F` [Example 59, 4-(2,6-difluorobenzyl)-2-(3-fluoro-4-((4-methylthiazol-5-yl)methyl)phenyl)-2,4-dihydro-3H-1,2,4-triazol-3-one], which IC50 is on record?
**A.** The IC50 was less than 100 nM.
